Laboratory results from ChEMBL document CHEMBL3877313, “3,4-Dihydropyrimidinone-coumarin analogues as a new class of selective agent against S. aureus: Synthesis, biological evaluation and molecular modelling study” (2017).
≈ marks a conversion by molar mass, not a printed value.

Legend:
[1] = biological target: Matrix metalloproteinase-9 (Homo sapiens) (UniProt P14780); experiment: Inhibition of MMP9 in inflamed tissue isolated from chronic periodontitis patient at 500 ug/l after 15 to 30 mins by gelatin zymographic method relative to control
Pseudomonas aeruginosa = experiment: Antibacterial activity against Pseudomonas aeruginosa ATCC 25619 after 24 hrs by broth microdilution method; assay type: functional; conditions: ATCC 25619, 24 h
Escherichia coli = experiment: Antibacterial activity against Escherichia coli ATCC 25922 after 24 hrs by broth microdilution method; assay type: functional; conditions: ATCC 25922, 24 h
[2] = biological target: 72 kDa type IV collagenase (Homo sapiens) (UniProt P08253); experiment: Inhibition of MMP2 in inflamed tissue isolated from chronic periodontitis patient at 500 ug/l after 15 to 30 mins by gelatin zymographic method relative to control
Staphylococcus aureus = experiment: Antibacterial activity against Staphylococcus aureus ATCC 12598 after 24 hrs by broth microdilution method; assay type: functional; conditions: ATCC 12598, 24 h
Bacillus subtilis = experiment: Antibacterial activity against Bacillus subtilis ATCC 23857 after 24 hrs by broth microdilution method; assay type: functional; conditions: ATCC 23857, 24 h

72 kDa type IV collagenase (Homo sapiens), sequence (P08253 110-660 limits assumed): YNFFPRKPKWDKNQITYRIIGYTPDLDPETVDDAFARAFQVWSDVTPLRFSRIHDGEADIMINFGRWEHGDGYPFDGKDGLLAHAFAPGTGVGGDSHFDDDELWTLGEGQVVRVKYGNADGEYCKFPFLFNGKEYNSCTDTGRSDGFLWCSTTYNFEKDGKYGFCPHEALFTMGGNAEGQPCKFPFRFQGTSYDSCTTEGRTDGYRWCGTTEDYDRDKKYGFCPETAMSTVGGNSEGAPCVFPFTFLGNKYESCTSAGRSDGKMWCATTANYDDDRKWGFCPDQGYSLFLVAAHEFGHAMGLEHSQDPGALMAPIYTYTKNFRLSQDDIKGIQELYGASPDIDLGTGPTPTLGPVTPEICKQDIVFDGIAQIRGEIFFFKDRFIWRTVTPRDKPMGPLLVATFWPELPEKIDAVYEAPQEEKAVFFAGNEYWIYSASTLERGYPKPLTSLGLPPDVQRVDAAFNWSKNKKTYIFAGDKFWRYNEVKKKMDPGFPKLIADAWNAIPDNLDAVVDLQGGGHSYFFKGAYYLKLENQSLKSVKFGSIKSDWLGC
Matrix metalloproteinase-9 (Homo sapiens), sequence (P14780 whole entry): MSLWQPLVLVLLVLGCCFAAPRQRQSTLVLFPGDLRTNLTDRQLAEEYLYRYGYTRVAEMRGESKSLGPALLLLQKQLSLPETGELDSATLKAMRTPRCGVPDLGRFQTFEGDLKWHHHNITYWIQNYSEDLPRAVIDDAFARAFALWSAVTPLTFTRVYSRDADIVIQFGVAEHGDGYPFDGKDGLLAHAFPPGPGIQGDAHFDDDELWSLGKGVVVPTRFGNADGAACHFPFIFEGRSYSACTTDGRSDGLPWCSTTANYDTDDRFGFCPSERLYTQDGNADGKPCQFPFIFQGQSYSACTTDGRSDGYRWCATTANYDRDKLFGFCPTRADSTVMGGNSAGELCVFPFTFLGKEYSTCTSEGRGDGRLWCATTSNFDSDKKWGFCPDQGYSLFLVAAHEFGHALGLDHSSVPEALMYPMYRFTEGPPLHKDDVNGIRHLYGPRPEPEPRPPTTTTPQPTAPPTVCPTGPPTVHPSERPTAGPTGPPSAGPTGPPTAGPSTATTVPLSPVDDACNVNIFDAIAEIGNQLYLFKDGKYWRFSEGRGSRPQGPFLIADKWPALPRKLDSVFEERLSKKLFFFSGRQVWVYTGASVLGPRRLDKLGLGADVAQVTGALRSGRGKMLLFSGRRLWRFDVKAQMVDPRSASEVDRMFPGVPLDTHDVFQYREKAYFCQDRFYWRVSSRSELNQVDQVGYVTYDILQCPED

Row | inhibition [1] | MIC (Pseudomonas aeruginosa) | MIC (Escherichia coli) | inhibition [2] | MIC (Staphylococcus aureus) | MIC (Bacillus subtilis) | Structure (SMILES)
1 | 85% | 25 µg/mL (≈ 69.8 µM) | 50 µg/mL (≈ 140 µM) | 95% | 0.8 µg/mL (≈ 2.23 µM) | 100 µg/mL (≈ 279 µM) | CCOC(=O)C1=C(C)NC(=O)NC1c1cc(=O)oc2ccc(OC)cc12 (configuration not stated)
2 | – | 100 µg/mL (≈ 264 µM) | 0.4 µg/mL (≈ 1.06 µM) | 85% | 0.8 µg/mL (≈ 2.11 µM) | 50 µg/mL (≈ 132 µM) | CCOC(=O)C1=C(C)NC(=S)NC1c1cc(=O)oc2ccc(Cl)cc12 (configuration not stated)
3 | 70% | 100 µg/mL (≈ 292 µM) | 12.5 µg/mL (≈ 36.5 µM) | 95% | 0.2 µg/mL (≈ 0.584 µM) | 50 µg/mL (≈ 146 µM) | CCOC(=O)C1=C(C)NC(=O)NC1c1cc(=O)oc2cc(C)ccc12 (configuration not stated)
4 | 80% | 100 µg/mL (≈ 292 µM) | 50 µg/mL (≈ 146 µM) | 90% | 0.4 µg/mL (≈ 1.17 µM) | 12.5 µg/mL (≈ 36.5 µM) | CCOC(=O)C1=C(C)NC(=O)NC1c1cc(=O)oc2ccc(C)cc12 (configuration not stated)
5 | 100% | – | – | 100% | – | – | CN(C)[C@@H]1C(O)=C(C(N)=O)C(=O)[C@@]2(O)C(O)=C3C(=O)c4c(O)cccc4[C@@](C)(O)[C@H]3C[C@@H]12
6 | – | 100 µg/mL (≈ 279 µM) | 1.6 µg/mL (≈ 4.46 µM) | 82% | 0.4 µg/mL (≈ 1.12 µM) | 100 µg/mL (≈ 279 µM) | CCOC(=O)C1=C(C)NC(=S)NC1c1cc(=O)oc2ccc(C)cc12 (configuration not stated)

Continued, compound first:

Row | Structure (SMILES) | inhibition [1] | MIC (Pseudomonas aeruginosa) | MIC (Escherichia coli) | inhibition [2] | MIC (Staphylococcus aureus) | MIC (Bacillus subtilis)
7 | CCOC(=O)C1=C(C)NC(=O)NC1c1cc(=O)oc2c1ccc1ccccc12 (configuration not stated) | 90% | 25 µg/mL (≈ 66.1 µM) | 25 µg/mL (≈ 66.1 µM) | 96% | 0.4 µg/mL (≈ 1.06 µM) | 100 µg/mL (≈ 264 µM)
8 | O=C(O)c1cn(C2CC2)c2cc(N3CCNCC3)c(F)cc2c1=O [CIPROFLOXACIN] | – | < 4 µg/mL | – | – | 2 µg/mL (≈ 6.04 µM) | 2 µg/mL (≈ 6.04 µM)
9 | CCOC(=O)C1=C(C)NC(=S)NC1c1cc(=O)oc2cc(C)ccc12 (configuration not stated) | 30% | 100 µg/mL (≈ 279 µM) | 25 µg/mL (≈ 69.8 µM) | 80% | 6.25 µg/mL (≈ 17.4 µM) | 50 µg/mL (≈ 140 µM)
10 | CCOC(=O)C1=C(C)NC(=O)NC1c1cc(=O)oc2ccc(Cl)cc12 (configuration not stated) | – | 50 µg/mL (≈ 138 µM) | 25 µg/mL (≈ 68.9 µM) | 85% | 3.12 µg/mL (≈ 8.6 µM) | 100 µg/mL (≈ 276 µM)
11 | CCOC(=O)C1=C(C)NC(=S)NC1c1cc(=O)oc2c1ccc1ccccc12 (configuration not stated) | 95% | 100 µg/mL (≈ 254 µM) | 0.4 µg/mL (≈ 1.01 µM) | 90% | 0.4 µg/mL (≈ 1.01 µM) | 100 µg/mL (≈ 254 µM)
12 | CCOC(=O)C1=C(C)NC(=S)NC1c1cc(=O)oc2ccc(OC)cc12 (configuration not stated) | 10% | 100 µg/mL (≈ 267 µM) | 25 µg/mL (≈ 66.8 µM) | 87% | 0.8 µg/mL (≈ 2.14 µM) | 50 µg/mL (≈ 134 µM)
